Among the test systems are A549 NSCLC; BT-549 breast; HL-60(TB) leukemia; M14 melanoma; MDA-MB-231 breast; MOLT-4 leukemia; SN12C renal; T-47D breast.
What all share (assay): NCI tumour cell line growth inhibition, 48 h

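Grown in 96-well plates, cells were treated for 48 hours with each compound at five concentrations. Insufficient inhibition: endpoint recorded as highest concentration tested. Here, GI50 denotes the concentration required for 50% inhibition of growth. The concentration for full growth arrest is given as TGI.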 Some results are limits rather than exact numbers.

Take `O=C1CCCC1C(O)(C(F)(F)Cl)C(F)(F)Cl` (configuration not stated): the TGI in the experiment on A549 NSCLC, with BT-549 breast, in the experiment with HL-60(TB) leukemia, in the experiment with M14 melanoma, with MDA-MB-231 breast and in the experiment on MOLT-4 leukemia was greater than 10 µM in each case. Moreover, the TGI with SN12C renal and in the experiment with T-47D breast was greater than 10 µM throughout.

As for `COc1ccc(/C=C/C(=O)N[C@@H]2C(=O)N3[C@@H]2SC(C)(C)[C@@H]3C(=O)O)cc1OC`, the TGI in the experiment with A549 NSCLC, with BT-549 breast, with HL-60(TB) leukemia, in the experiment with M14 melanoma, in the experiment with MDA-MB-231 breast and in the experiment with MOLT-4 leukemia was greater than 100 µM throughout. Also, the TGI in the experiment on SN12C renal and in the experiment on T-47D breast was greater than 100 µM throughout.

Regarding `CC(C)[Si](CC1=CCCCC12C(=O)N(COCC[Si](C)(C)C)c1ccccc12)(C(C)C)C(C)C` (configuration not stated), the TGI with A549 NSCLC was greater than 100 µM; with M14 melanoma, greater than 100 µM; in the experiment with MDA-MB-231 breast, greater than 100 µM; with MOLT-4 leukemia it was greater than 100 µM; with T-47D breast it was 96.9 µM.

For the compound `CC1(C)C/C=C\CCC(O)C(O)CCC(C)(C)C1=O` (configuration not stated), the TGI with A549 NSCLC, in the experiment with BT-549 breast, in the experiment on HL-60(TB) leukemia, with MDA-MB-231 breast, in the experiment with MOLT-4 leukemia and in the experiment on SN12C renal was greater than 100 µM each time. This compound also returned a TGI in the experiment on T-47D breast greater than 100 µM.

As to `O=[N+]([O-])c1ccc(N/N=C\c2ccc(O)cc2O)nc1`, the GI50 is 2.47 µM with A549 NSCLC; 6.06 µM in the experiment on BT-549 breast; 1.44 µM in the experiment on M14 melanoma; 2.1 µM in the experiment on MDA-MB-231 breast; 3.12 µM with SN12C renal; 4.04 µM in the experiment on T-47D breast. Further, the TGI was greater than 100 µM in the experiment with A549 NSCLC; greater than 100 µM with BT-549 breast; 4.85 µM with M14 melanoma; greater than 100 µM with MDA-MB-231 breast; greater than 100 µM with SN12C renal; greater than 100 µM with T-47D breast.

On to `COC(=O)c1cc(OCc2cc(OCc3ccc(Br)cc3)cc(OCc3ccc(Br)cc3)c2)cc(OCc2cc(OCc3ccc(Br)cc3)cc(OCc3ccc(Br)cc3)c2)c1`, for which the TGI in the experiment on A549 NSCLC, in the experiment with BT-549 breast, with M14 melanoma, in the experiment on MDA-MB-231 breast, in the experiment with MOLT-4 leukemia and in the experiment on SN12C renal was greater than 100 µM each time. In addition, the TGI with T-47D breast is greater than 100 µM.

`O=C(CCCN1CCC(Nc2ccc(F)cc2)(c2nnnn2C2CCCCC2)CC1)c1ccc(F)cc1`: the TGI is 31.6 µM with A549 NSCLC; 33.1 µM with BT-549 breast; 40.4 µM in the experiment on HL-60(TB) leukemia; 32.4 µM with M14 melanoma; 36 µM with MDA-MB-231 breast; greater than 100 µM with MOLT-4 leukemia. The same compound yielded a TGI with SN12C renal greater than 100 µM.

Consider `COC1=C2C[C@](OC)(C#CC=CC#CC2O)CC1(C)C` (some centres not stated), for which the TGI in the experiment on A549 NSCLC, in the experiment on BT-549 breast, in the experiment with HL-60(TB) leukemia, in the experiment on MDA-MB-231 breast, with MOLT-4 leukemia and with SN12C renal was greater than 100 µM throughout. In the experiment on T-47D breast, this compound registered a TGI greater than 100 µM.

For `O=Cc1ccc(Oc2c3ccccc3nc3ccccc23)cc1`, the TGI in the experiment with A549 NSCLC was found to be 49 µM; with BT-549 breast, 37.4 µM; with M14 melanoma it was 10.7 µM; in the experiment with MDA-MB-231 breast it was 13.3 µM; in the experiment on MOLT-4 leukemia it was 6.08 µM; in the experiment on SN12C renal it was 11.1 µM. The compound further showed a TGI with T-47D breast of 12.5 µM.

In the case of `O=CC1C(=O)Nc2nc3ccccc3n2C1c1ccccc1` (configuration not stated), the TGI is 95.4 µM in the experiment on A549 NSCLC; 28.4 µM in the experiment with BT-549 breast; greater than 100 µM in the experiment on HL-60(TB) leukemia; 34 µM in the experiment on M14 melanoma; 44.3 µM with MDA-MB-231 breast; 5.73 µM with MOLT-4 leukemia. Also, in the experiment with SN12C renal, the TGI came to 28.2 µM.

As for `O=[N+]([O-])c1cc(C2ON=C(c3ccccc3)N2C23CC4CC(CC(C4)C2)C3)ccc1Cl` (configuration not stated), the TGI with A549 NSCLC, with HL-60(TB) leukemia, with M14 melanoma, in the experiment on MDA-MB-231 breast, in the experiment with MOLT-4 leukemia and with SN12C renal was greater than 100 µM in each case. The TGI with T-47D breast is greater than 100 µM.

Consider `COc1cc2oc(=O)cc(C)c2c(OC)c1OC`, for which the TGI in the experiment on A549 NSCLC, in the experiment with M14 melanoma, in the experiment on MDA-MB-231 breast, with MOLT-4 leukemia and in the experiment with SN12C renal was greater than 100 µM in each case.

As to `COC(=O)CCC(=O)c1ccc2c(c1)CC1(Cc3ccccc3C1)C2`, the TGI in the experiment with A549 NSCLC was greater than 100 µM; with M14 melanoma, greater than 100 µM; in the experiment on MDA-MB-231 breast it was greater than 100 µM; in the experiment with MOLT-4 leukemia, 52.6 µM; in the experiment with SN12C renal it was greater than 100 µM; in the experiment with T-47D breast it was greater than 100 µM.

For the compound `c1ccc2c[n+](Cc3ccnc4ccccc34)ccc2c1`, the TGI with A549 NSCLC, with BT-549 breast, in the experiment with M14 melanoma, in the experiment with MDA-MB-231 breast, with MOLT-4 leukemia and in the experiment with SN12C renal was greater than 100 µM in each case. The compound also registered a TGI in the experiment on T-47D breast greater than 100 µM.

In the case of `CSc1cc(Cl)c(C)cc1S(=O)(=O)NC(=O)NNc1cnc2ccccc2n1`, the TGI in the experiment on A549 NSCLC was greater than 100 µM; in the experiment on M14 melanoma, greater than 100 µM; in the experiment on MDA-MB-231 breast, greater than 100 µM; with MOLT-4 leukemia, 56.8 µM; with SN12C renal, greater than 100 µM; with T-47D breast, greater than 100 µM.

For `CCN(CC)C(=O)CCNC(C)Cc1c[nH]c2ccccc12` (configuration not stated), the TGI with A549 NSCLC, in the experiment with HL-60(TB) leukemia, in the experiment with M14 melanoma, in the experiment on MDA-MB-231 breast, in the experiment on MOLT-4 leukemia and in the experiment with SN12C renal was greater than 100 µM each time. In the experiment on T-47D breast, the TGI was greater than 100 µM.

Consider `NC(=O)NC(=O)c1cccc(C(=O)NC(N)=O)n1`, for which the TGI in the experiment on A549 NSCLC, in the experiment with HL-60(TB) leukemia, in the experiment on M14 melanoma, in the experiment on MDA-MB-231 breast, in the experiment on MOLT-4 leukemia and in the experiment on SN12C renal was greater than 100 µM in each case. For the same compound, in the experiment on T-47D breast, the TGI is greater than 100 µM.

`CN(C)C=Nc1cccc2c1NSN2`: the TGI with A549 NSCLC, with HL-60(TB) leukemia, in the experiment with M14 melanoma, with MDA-MB-231 breast, with MOLT-4 leukemia and in the experiment on SN12C renal was greater than 100 µM each time. For the same compound, the TGI in the experiment with T-47D breast is greater than 100 µM.
